Drawing on patent publication US11078170B2 (Assembly Biosciences, Inc., priority 2017, dated 2021), this text covers EC50 for 28 compounds.

The subject of this experiment is HBV viral production from HepAD38 cells. Description: Activity of test compounds on viral production from HepAD38 cells (viral load by qPCR of HBV core sequence in supernatant). The format is cell-based. To be noted: Hepatitis B virus, 120 h, 5 days incubation, HBV DNA in supernatant by qPCR, top concentration 10 μM, read-out: Viral Load EC50 Activity range. The gist of the method:
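HepAD38 cells, 50,000/well in tetracycline-free 2% FBS medium, treated 5 days at 37° C. with compound from 10 μM top concentration. HBV DNA in supernatant quantified by TaqMan qPCR of core sequence against DNA standards, relative to DMSO wells; CellTiter-Glo viability read in parallel. EC50/CC50 from four-parameter logistic fit.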
For orientation: In qPCR the cycle at which signal appears reflects the starting amount.
As a reminder, the EC50 is the concentration at which the effect is half-maximal. As for `CN1C(C(=O)Nc2ccc(F)c(Cl)c2)CC(c2cccc(C(F)(F)F)c2)NS1(=O)=O` (stereo not drawn) [HBV-CSU-259, Cis-N-(3-chloro-4-fluorophenyl)-2-methyl-5-(3-(trifluoromethyl)phenyl)-1,2,6-thiadiazinane-3-carboxamide 1,1-dioxide], the EC50 is < 1000 nM.
Then `CN1C(C(=O)Nc2ccc(F)c(Cl)c2)CC(c2cc(Cl)c(O)c(Cl)c2)NS1(=O)=O` (stereo not drawn) [HBV-CSU-260, Cis-N-(3-Chloro-4-fluorophenyl)-5-(3,5-dichloro-4-hydroxyphenyl)-2-methyl-1,2,6-thiadiazinane-3-carboxamide 1,1-dioxide], with < 1000 nM; and `CN1[C@H](C(=O)Nc2ccc(F)c(Cl)c2)C[C@H](c2cccc(Cl)c2)NS1(=O)=O` [HBV-CSU-261-ISO-I, Cis-N-(3-Chloro-4-fluorophenyl)-5-(3-chlorophenyl)-2-methyl-1,2,6-thiadiazinane-3-carboxamide 1,1-dioxide], with < 1000 nM; and `CN1[C@@H](C(=O)Nc2ccc(F)c(Cl)c2)C[C@@H](c2cccc(Cl)c2)NS1(=O)=O` [HBV-CSU-261-ISO-II, Cis-N-(3-Chloro-4-fluorophenyl)-5-(3-chlorophenyl)-2-methyl-1,2,6-thiadiazinane-3-carboxamide 1,1-dioxide], with > 5000 nM.
Then `CN1C(C(=O)Nc2ccc(F)c(Cl)c2)CC(c2ccc(Cl)cc2)NS1(=O)=O` (stereo not drawn) [HBV-CSU-265, Cis-N-(3-Chloro-4-fluorophenyl)-5-(4-chlorophenyl)-2-methyl-1,2,6-thiadiazinane-3-carboxamide 1,1-dioxide], with < 1000 nM.
In the case of `CN1[C@@H](C(=O)Nc2ccc(F)c(Cl)c2)C[C@@H](c2ccc(Cl)cc2)NS1(=O)=O` [HBV-CSU-265-ISO-II] it was > 5000 nM; in that of `CN1[C@H](C(=O)Nc2ccc(F)c(Cl)c2)C[C@H](c2ccc(Cl)cc2)NS1(=O)=O` [HBV-CSU-265-ISO-I], < 1000 nM; in that of `CN1[C@H](C(=O)Nc2ccc(F)c(Cl)c2)C[C@H](c2ccc(-c3cn(C)cn3)s2)NS1(=O)=O` [HBV-CSU-266-ISO-I, (3S,5R)-N-(3-chloro-4-fluorophenyl)-2-methyl-5-(5-(1-methyl-1H-imidazol-4-yl)thiophen-2-yl)-1,2,6-thiadiazinane-3-carboxamide 1,1-dioxide], < 1000 nM.
On to `CN1[C@@H](C(=O)Nc2ccc(F)c(Cl)c2)C[C@@H](c2ccc(-c3cn(C)cn3)s2)NS1(=O)=O` [HBV-CSU-266-ISO-II, Cis-N-(3-Chloro-4-fluorophenyl)-2-methyl-5-(5-(1-methyl-1H-imidazol-4-yl)thiophen-2-yl)-1,2,6-thiadiazinane-3-carboxamide 1,1-dioxide], for which the concentration giving a half-maximal response (EC50) is 1000 to 5000 nM.
In the case of `CN1[C@@H](C(=O)Nc2ccc(F)c(Cl)c2)C[C@H](c2ccc(-c3cn(C)cn3)s2)NS1(=O)=O` [HBV-CSU-266-Trans-ISO-I, (3R,5R)-N-(3-chloro-4-fluorophenyl)-2-methyl-5-(5-(1-methyl-1H-imidazol-4-yl)thiophen-2-yl)-1,2,6-thiadiazinane-3-carboxamide 1,1-dioxide] it was < 1000 nM.
In the case of `CN1[C@H](C(=O)Nc2ccc(F)c(Cl)c2)C[C@@H](c2ccc(-c3cn(C)cn3)s2)NS1(=O)=O` [HBV-CSU-266-Trans-ISO-II, (3S,5S)-N-(3-chloro-4-fluorophenyl)-2-methyl-5-(5-(1-methyl-1H-imidazol-4-yl)thiophen-2-yl)-1,2,6-thiadiazinane-3-carboxamide 1,1-dioxide] it was 1000 to 5000 nM.
Then `CN1[C@H](C(=O)Nc2ccc(F)c(Cl)c2)C[C@H](c2ccc(-c3cncn3C)s2)NS1(=O)=O` [HBV-CSU-267-ISO-I, Cis-N-(3-Chloro-4-fluorophenyl)-2-methyl-5-(5-(1-methyl-1H-imidazol-5-yl)thiophen-2-yl)-1,2,6-thiadiazinane-3-carboxamide 1,1-dioxide], with < 1000 nM.
As to `CN1[C@@H](C(=O)Nc2ccc(F)c(Cl)c2)C[C@@H](c2ccc(-c3cncn3C)s2)NS1(=O)=O` [HBV-CSU-267-ISO-II, Cis-N-(3-Chloro-4-fluorophenyl)-2-methyl-5-(5-(1-methyl-1H-imidazol-5-yl)thiophen-2-yl)-1,2,6-thiadiazinane-3-carboxamide 1,1-dioxide], the concentration giving a half-maximal response (EC50) is < 1000 nM.
Then `CN1[C@H](C(=O)Nc2ccc(F)c(Cl)c2)C[C@H](c2ccc(-c3cncs3)s2)NS1(=O)=O` [HBV-CSU-268-ISO-I, Cis-N-(3-Chloro-4-fluorophenyl)-2-methyl-5-(5-(thiazol-5-yl)thiophen-2-yl)-1,2,6-thiadiazinane-3-carboxamide 1,1-dioxide], with < 1000 nM.
Then `CN1[C@@H](C(=O)Nc2ccc(F)c(Cl)c2)C[C@@H](c2ccc(-c3cncs3)s2)NS1(=O)=O` [HBV-CSU-268-ISO-II, Cis-N-(3-Chloro-4-fluorophenyl)-2-methyl-5-(5-(thiazol-5-yl)thiophen-2-yl)-1,2,6-thiadiazinane-3-carboxamide 1,1-dioxide], with > 5000 nM; and `CN1[C@H](C(=O)Nc2ccc(F)c(Cl)c2)C[C@H](c2ccc(-c3cnco3)s2)NS1(=O)=O` [HBV-CSU-269-ISO-I, Cis-N-(3-Chloro-4-fluorophenyl)-2-methyl-5-(5-(oxazol-5-yl)thiophen-2-yl)-1,2,6-thiadiazinane-3-carboxamide 1,1-dioxide], with < 1000 nM; and `CN1[C@@H](C(=O)Nc2ccc(F)c(Cl)c2)C[C@@H](c2ccc(-c3cnco3)s2)NS1(=O)=O` [HBV-CSU-269-ISO-II, Cis-N-(3-Chloro-4-fluorophenyl)-2-methyl-5-(5-(oxazol-5-yl)thiophen-2-yl)-1,2,6-thiadiazinane-3-carboxamide 1,1-dioxide], with 1000 to 5000 nM.
In the case of `CN1[C@H](C(=O)Nc2ccc(F)c(Cl)c2)C[C@H](c2ccc(-c3ccn(C)n3)s2)NS1(=O)=O` [HBV-CSU-270-ISO-I, Cis-N-(3-Chloro-4-fluorophenyl)-2-methyl-5-(5-(1-methyl-1H-pyrazol-3-yl)thiophen-2-yl)-1,2,6-thiadiazinane-3-carboxamide 1,1-dioxide] it was < 1000 nM; in that of `CN1[C@@H](C(=O)Nc2ccc(F)c(Cl)c2)C[C@@H](c2ccc(-c3ccn(C)n3)s2)NS1(=O)=O` [HBV-CSU-270-ISO-II, Cis-N-(3-Chloro-4-fluorophenyl)-2-methyl-5-(5-(1-methyl-1H-pyrazol-3-yl)thiophen-2-yl)-1,2,6-thiadiazinane-3-carboxamide 1,1-dioxide], 1000 to 5000 nM.
For the compound `CN1[C@H](C(=O)Nc2ccc(F)c(Cl)c2)C[C@H](c2ccc(-c3ccnn3C)s2)NS1(=O)=O` [HBV-CSU-271-ISO-I, Cis-N-(3-chloro-4-fluorophenyl)-2-methyl-5-(5-(1-methyl-1H-pyrazol-5-yl)thiophen-2-yl)-1,2,6-thiadiazinane-3-carboxamide 1,1-dioxide], the EC50 was < 1000 nM.
Then `CN1[C@@H](C(=O)Nc2ccc(F)c(Cl)c2)C[C@@H](c2ccc(-c3ccnn3C)s2)NS1(=O)=O` [HBV-CSU-271-ISO-II, Cis-N-(3-chloro-4-fluorophenyl)-2-methyl-5-(5-(1-methyl-1H-pyrazol-5-yl)thiophen-2-yl)-1,2,6-thiadiazinane-3-carboxamide 1,1-dioxide], with 1000 to 5000 nM.
Consider `CN1[C@H](C(=O)Nc2ccc(F)c(Cl)c2)C[C@H](c2ccc(-c3cncnc3)s2)NS1(=O)=O` [HBV-CSU-272-ISO-I, Cis-N-(3-chloro-4-fluorophenyl)-2-methyl-5-(5-(pyrimidin-5-yl)thiophen-2-yl)-1,2,6-thiadiazinane-3-carboxamide 1,1-dioxide], for which the EC50 is < 1000 nM.
In the case of `CN1[C@@H](C(=O)Nc2ccc(F)c(Cl)c2)C[C@@H](c2ccc(-c3cncnc3)s2)NS1(=O)=O` [HBV-CSU-272-ISO-II, Cis-N-(3-chloro-4-fluorophenyl)-2-methyl-5-(5-(pyrimidin-5-yl)thiophen-2-yl)-1,2,6-thiadiazinane-3-carboxamide 1,1-dioxide] it was > 5000 nM; in that of `CN1C(C(=O)Nc2ccc(F)c(Cl)c2)CC(c2ccc3ncsc3c2)NS1(=O)=O` (stereo not drawn) [HBV-CSU-273, Cis-5-(benzo[d]thiazol-6-yl)-N-(3-chloro-4-fluorophenyl)-2-methyl-1,2,6-thiadiazinane-3-carboxamide 1,1-dioxide], < 1000 nM; in that of `CN1[C@H](C(=O)Nc2ccc(F)c(Cl)c2)C[C@H](c2ncc(-c3cn(C)cn3)s2)NS1(=O)=O` [HBV-CSU-276-ISO-I, (3S,5R)-N-(3-chloro-4-fluorophenyl)-2-methyl-5-(5-(1-methyl-1H-imidazol-4-yl)thiazol-2-yl)-1,2,6-thiadiazinane-3-carboxamide 1,1-dioxide], < 1000 nM.
Then `CN1[C@@H](C(=O)Nc2ccc(F)c(Cl)c2)C[C@@H](c2ncc(-c3cn(C)cn3)s2)NS1(=O)=O` [HBV-CSU-276-ISO-II, Cis-N-(3-Chloro-4-fluorophenyl)-2-methyl-5-(5-(1-methyl-1H-imidazol-4-yl)thiazol-2-yl)-1,2,6-thiadiazinane-3-carboxamide 1,1-dioxide], with > 5000 nM; and `CN1[C@@H](C(=O)Nc2ccc(F)c(Cl)c2)C[C@H](c2ncc(-c3cn(C)cn3)s2)NS1(=O)=O` [HBV-CSU-276-Trans-ISO-I, (3R,5R)-N-(3-chloro-4-fluorophenyl)-2-methyl-5-(5-(1-methyl-1H-imidazol-4-yl)thiazol-2-yl)-1,2,6-thiadiazinane-3-carboxamide 1,1-dioxide], with < 1000 nM.
In the case of `CN1[C@H](C(=O)Nc2ccc(F)c(Cl)c2)C[C@@H](c2ncc(-c3cn(C)cn3)s2)NS1(=O)=O` [HBV-CSU-276-Trans-ISO-II, (3S,5S)-N-(3-chloro-4-fluorophenyl)-2-methyl-5-(5-(1-methyl-1H-imidazol-4-yl)thiazol-2-yl)-1,2,6-thiadiazinane-3-carboxamide 1,1-dioxide] it was 1000 to 5000 nM.
